Drawing on ChEMBL document CHEMBL1687691, “From taxuspine x to structurally simplified taxanes with remarkable p-glycoprotein inhibitory activity” (ACS Med Chem Lett, 2010), this text covers Alpha max and IC50 for three compounds.

The target in data set [1] is T1, ATP-dependent translocase ABCB1 (Homo sapiens, UniProt P08183). The data set can be described thus: Inhibition of human MDR1 expressed in mouse L5178 cells assessed as increase in intracellular accumulation of rhodamine 123 AT 0.1 mM by FACSCalibur flow cytometry. Format: cell-based. To be noted: l5178, 100 µM. On the technique in general: A flow cytometer gives signals particle by particle.
T1 sequence (P08183 whole entry): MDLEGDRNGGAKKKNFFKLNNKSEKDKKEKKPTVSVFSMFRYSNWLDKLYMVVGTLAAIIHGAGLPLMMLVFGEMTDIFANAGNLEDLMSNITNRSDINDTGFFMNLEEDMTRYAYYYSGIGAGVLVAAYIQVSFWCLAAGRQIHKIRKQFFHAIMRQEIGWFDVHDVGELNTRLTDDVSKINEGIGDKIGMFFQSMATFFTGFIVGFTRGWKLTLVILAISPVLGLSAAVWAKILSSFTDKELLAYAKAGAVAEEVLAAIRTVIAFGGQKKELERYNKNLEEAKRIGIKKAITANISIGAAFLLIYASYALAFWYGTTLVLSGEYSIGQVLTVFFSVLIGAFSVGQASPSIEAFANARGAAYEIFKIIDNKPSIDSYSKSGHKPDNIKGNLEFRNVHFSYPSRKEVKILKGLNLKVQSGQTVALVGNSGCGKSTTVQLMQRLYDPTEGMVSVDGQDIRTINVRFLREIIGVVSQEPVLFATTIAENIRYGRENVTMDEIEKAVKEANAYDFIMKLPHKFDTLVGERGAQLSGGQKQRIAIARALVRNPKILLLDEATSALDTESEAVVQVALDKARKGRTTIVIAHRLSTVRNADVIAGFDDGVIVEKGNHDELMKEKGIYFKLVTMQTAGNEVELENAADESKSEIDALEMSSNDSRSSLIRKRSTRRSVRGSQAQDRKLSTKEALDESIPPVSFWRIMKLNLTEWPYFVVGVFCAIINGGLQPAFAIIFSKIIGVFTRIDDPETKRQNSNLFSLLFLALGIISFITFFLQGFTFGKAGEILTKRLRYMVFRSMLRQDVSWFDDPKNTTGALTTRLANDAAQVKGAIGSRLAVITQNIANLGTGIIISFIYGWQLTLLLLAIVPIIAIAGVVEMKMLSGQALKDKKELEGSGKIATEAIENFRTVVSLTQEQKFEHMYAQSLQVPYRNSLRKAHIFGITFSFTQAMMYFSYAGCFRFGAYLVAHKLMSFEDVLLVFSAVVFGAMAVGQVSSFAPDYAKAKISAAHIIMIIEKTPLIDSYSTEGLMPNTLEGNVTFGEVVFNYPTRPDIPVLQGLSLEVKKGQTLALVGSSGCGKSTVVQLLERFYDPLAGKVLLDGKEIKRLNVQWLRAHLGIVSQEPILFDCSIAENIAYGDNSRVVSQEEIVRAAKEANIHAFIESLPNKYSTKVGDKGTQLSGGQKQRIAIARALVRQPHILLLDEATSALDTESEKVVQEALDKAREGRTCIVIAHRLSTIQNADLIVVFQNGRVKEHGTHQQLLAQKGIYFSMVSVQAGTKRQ

In data set [2] the target is T1, ATP-dependent translocase ABCB1. Put plainly: Inhibition of human MDR1 expressed in mouse L5178 cells assessed as increase in intracellular accumulation of rhodamine 123 by FACSCalibur flow cytometry. Format: cell-based.

As for `COCCOCO[C@@H]1/C=C\COC(=O)/C=C/[C@@H](OC)[C@@H]2C[C@@H](OC(=O)c3ccccc3)C(C)=C1C2(C)C`, the Alpha max in data set [1] amounted to 1. In addition, the IC50 in data set [2] came to 7.2 µM.
The matching figures for `COCCOCO[C@@H]1/C=C\C(OC(C)=O)C(OC(C)=O)/C=C/[C@@H](OC)[C@@H]2CCC(C)=C1C2(C)C` (stereo not given in full): 1 and 24 µM.
Turning to `COCCOCO[C@@H]1/C=C\COC(=O)/C=C/[C@@H](OC)[C@@H]2CCC(C)=C1C2(C)C`, the Alpha max in data set [1] is 0.37.

One may read the IC50 as the concentration needed to halve the response being measured.
